Test results published in patent US10370356B2, “Pyridinone dicarboxamide for use as bromodomain inhibitors” (GlaxoSmithKline Intellectual Property (No. 2) Limited, priority 2015, dated 2019).
Structures can show the parent of a compound that is named as a salt. Where two headings read alike, the source gives them in different places.

Tests used:
BRD4 BD2 = biological target: T1, BRD4 BD2 (Homo sapiens, UniProt O60885, Y97A); experiment: BRD4 BD2 mutant TR-FRET competition assay; format: binding
T1 construct: BRD4 (1-477) (Y97A) and (Y390A); made in house; host or cells: E. coli (pET15b vector)

[1] = system: BET family (BRD2, BRD3, BRD4 and BRDT) tandem bromodomain proteins; experiment: Fluorescence Polarisation binding of Reference Compound X to single and double mutant tandem BET proteins; parameters: species or system Human
Method: The competition of the compounds of formula (I) with Reference Compound X for binding to the BET family (BRD2, BRD3, BRD4 and BRDT) was assessed using protein truncates spanning both bromodomain 1 (BD1) and bromodomain 2 (BD2). In order to monitor differential binding to either BD1 or BD2, single residue mutations of key tyrosines to alanine were made in the acetyl lysine binding pockets. To validate this approach, a double residue mutant tandem domain protein was produced for each of the BET family members. Utilising a Fluorescence Polarisation approach, binding affinities for each of the single and double mutants for Reference Compound X were determined. […] The affinities of the single mutated bromdomain tandem proteins for Reference Compound X were equi-potent with the corresponding non-mutated BET protein. […] In the TR-FRET competition assay, Reference Compound X is used at a concentration that is equivalent to the Kd for the non-mutated bromodomain, which ensures that no binding at the mutated bromodomain is detected. […]

[2] = read-out: pIC50 in the BRD4 BD2 assay (converted)

CNC(=O)c1cc(C(=O)N[C@H]2[C@@H]3CN(CCNC(=O)OC(C)(C)C)C[C@@H]32)cn(Cc2cccc3[nH]ccc23)c1=O [Example 85, tert-Butyl (2-((1R,5S,6s)-6-(1-((1H-indol-4-yl)methyl)-5-(methylcarbamoyl)-6-oxo-1,6-dihydropyridine-3-carboxamido)-3-azabicyclo[3.1.0]hexan-3-yl)ethyl)carbamate]
IC50 (BRD4 BD2; [2]): ≤ 100 nM

CNC(=O)c1cc(C(=O)N[C@H]2[C@@H]3CN(CCN)C[C@@H]32)cn(Cc2cccc3[nH]ccc23)c1=O [Example 86, 1-((1H-Indol-4-yl)methyl)-N^5-((1R,5S,6s)-3-(2-aminoethyl)-3-azabicyclo[3.1.0]hexan-6-yl)-N^3-methyl-2-oxo-1,2-dihydropyridine-3,5-dicarboxamide]
IC50 (BRD4 BD2; [2]): ≤ 100 nM

CNC(=O)c1cc(C(=O)N[C@H]2[C@@H]3CN(CCNC(C)=O)C[C@@H]32)cn(Cc2cccc3[nH]ccc23)c1=O [Example 87, 1-((1H-Indol-4-yl)methyl)-N^5-((1R,5S,6s)-3-(2-acetamidoethyl)-3-azabicyclo[3.1.0]hexan-6-yl)-N^3-methyl-2-oxo-1,2-dihydrouridine-3,5-dicarboxamide]
IC50 (BRD4 BD2; [2]): ≤ 100 nM

CNC(=O)c1cc(C(=O)NCCC[C@H]2OC[C@H](N)CO2)cn(Cc2ccccc2)c1=O [Example 88, N^5-(3-((2r,5r)-5-Amino-1,3-dioxan-2-yl)propyl)-1-benzyl-N^3-methyl-2-oxo-1,2-dihydropyridine-3,5-dicarboxamide]
IC50 (BRD4 BD2; average of N recorded values, read-out: BRD4 BD2 IC50 (average value) (converted)): 50.1 nM
IC50 (BRD4 BD2; [2]): ≤ 100 nM

CNC(=O)c1cc(C(=O)NCCOC2CCNCC2)cn(Cc2ccccc2)c1=O [Example 89, 1-benzyl-N^3-methyl-2-oxo-N^5-(2-(piperidin-4-yloxy)ethyl)-1,2-dihydropyridine-3,5-dicarboxamide hydrochloride]
IC50 (BRD4 BD2; [2]): 100 to 1000 nM

CNC(=O)c1cc(C(=O)NC2CN(S(C)(=O)=O)C2)cn(Cc2ccccc2)c1=O [Example 90, 1-benzyl-N^3-methyl-N^5-(1-(methylsulfonyl)azetidin-3-yl)-2-oxo-1,2-dihydropyridine-3,5-dicarboxamide]
IC50 (BRD4 BD2; [2]): 100 to 1000 nM

CNC(=O)c1cc(C(=O)NC2COC2)cn(Cc2ccccc2)c1=O [Example 91, 1-benzyl-N^3-methyl-N^5-(oxetan-3-yl)-2-oxo-1,2-dihydropyridine-3,5-dicarboxamide]
IC50 (BRD4 BD2; [2]): 100 to 1000 nM

COc1ccc2c(c1)C(c1ccc(Cl)cc1)=N[C@@H](CC(=O)NCCCCCNC(=O)CCCCCC1(C)/C(=C/C=C/C=C/C3=[N+](CCCCS(=O)(=O)O)c4ccc(S(=O)(=O)O)cc4C3(C)C)N(CCCCS(=O)(=O)[O-])c3ccc(S(=O)(=O)O)cc31)c1nnc(C)n1-2 (stereo partly shown) [Reference Compound X]
reduction in Kd ([1]; double mutant tandem proteins versus non mutated, wild type tandem BET proteins): > 1000 fold
reduction of the Kd of the interaction between the mutated bromodomain and Reference Compound X ([1]; single mutations of Tyrosine to Alanine): > 1000 fold
